Measurements from patent US20250059185A1 (Hoffmann-La Roche Inc., priority 2021, published 2025).

Target: MAGL (Homo sapiens (Human), UniProt Q99685)
Experiment: 2-AG assay (MAGL inhibitory activity, hydrolysis of 2-arachidonoylglycerol followed by mass spectrometry)
Format: biochemical
Details: 50 pM MAGL protein, 15 min pre-incubation, 30 min incubation at RT
Description: Compounds of formula (II) were profiled for MAGL inhibitory activity by determining the enzymatic activity by following the hydrolysis of the natural substrate 2-arachidonoylglycerol (2-AG) resulting in arachidonic acid, which can be followed by mass spectrometry. This assay is hereinafter abbreviated “2-AG assay”.
Compounds of formula (II) were profiled for MAGL inhibitory activity by determining the enzymatic activity by following the hydrolysis of the natural substrate 2-arachidonoylglycerol (2-AG) resulting in arachidonic acid, which can be followed by mass spectrometry. This assay is hereinafter abbreviated “2-AG assay”. The 2-AG assay was carried out in 384 well polypropylene assay plates. Compound dilutions were made in 100% DMSO in a polypropylene plate in 3-fold dilution steps to give a final concentration range in the assay from 12.5 μM to 0.8 pM. Compound dilutions were added to MAGL protein in assay buffer (50 mM TRIS, 1 mM EDTA, 0.01% (v/v) Tween-20, 2.5% (v/v) DMSO). After shaking, the plate was incubated for 15 min at RT. To start the reaction, 2-arachidonoylglycerol in assay buffer was added. The final concentrations in the assay was 50 pM for MAGL protein and […] 2-arachidonoylglyerol. After shaking and 30 min incubation at RT, the reaction was quenched by the addition of two assay volumes of acetonitrile containing 4 μM of d8-arachidonic acid. The amount of arachidonic acid formed was traced by an online SPE system (Agilent Rapidfire) coupled to a triple quadrupole mass spectrometer. A C18 SPE cartridge (Agilent G9205A) was used in an acetonitrile/water liquid setup. The mass spectrometer was operated in negative electrospray mode following the mass transitions 303.1→259.1 for arachidonic acid and 311.1→267.0 for d8-arachidonic acid. The activity of the compounds was calculated based on the ratio of intensities [arachidonic acid/d8-arachidonic acid].

Chain of MAGL (Q99685 whole entry, species assumed): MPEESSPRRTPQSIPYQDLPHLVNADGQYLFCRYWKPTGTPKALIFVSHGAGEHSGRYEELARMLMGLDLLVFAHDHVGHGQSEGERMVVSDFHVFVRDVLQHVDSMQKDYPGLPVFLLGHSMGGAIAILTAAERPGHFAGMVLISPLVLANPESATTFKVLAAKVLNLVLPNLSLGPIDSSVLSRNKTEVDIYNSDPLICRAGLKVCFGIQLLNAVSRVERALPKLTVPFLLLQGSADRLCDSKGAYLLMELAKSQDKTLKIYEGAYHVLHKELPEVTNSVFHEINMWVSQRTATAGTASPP

Going from `C[C@H]1c2nn(C)c(-c3cc(F)cc(F)c3)c2CCN1C(=O)c1cc(F)cc(OC[C@@H]2CNC(=O)N2)c1Cl` (single isomer, unassigned) [Example 114] to `CC1c2nn(C)c(-c3cc(F)cc(F)c3)c2CCN1C(=O)c1ccnc(OCC2CNC(=O)O2)c1Cl` (centres unmarked) [Example 41, 5-[[3-Chloro-4-[3-(3,5-difluorophenyl)-2,7-dimethyl-5,7-dihydro-4H-pyrazolo[3,4-c]pyridine-6-carbonyl]-2-pyridyl]oxymethyl]oxazolidin-2-one], the IC50 falls from 929 nM to 53 nM (18-fold).

Compared with `C[C@@H]1c2nn(C)c(-c3cc(F)cc(F)c3)c2CCN1C(=O)c1ncn(-c2cc(Cl)cnc2O)n1` [Example 101, [1-(5-chloro-2-hydroxy-3-pyridyl)-1,2,4-triazol-3-yl]-[(7R)-3-(3,5-difluorophenyl)-2,7-dimethyl-5,7-dihydro-4H-pyrazolo[3,4-c]pyridin-6-yl]methanone], `C[C@H]1c2nn(C)c(-c3cc(F)cc(F)c3)c2CCN1C(=O)c1ncn(-c2ccc(O)nc2)n1` [Example 33, [(7S)-3-(3,5-Difluorophenyl)-2,7-dimethyl-5,7-dihydro-4H-pyrazolo[3,4-c]pyridin-6-yl]-[1-(6-hydroxy-3-pyridyl)-1,2,4-triazol-3-yl]methanone] is 19-fold lower in IC50: 3020 nM for the first, 163 nM for the second. The second is the more potent here.

Compared with `CC1c2nn(C)c(-c3cc(F)cc(F)c3)c2CCN1C(=O)c1cc(F)cc(C2=NOC(C)(C)C2)c1Cl` (centres unmarked) [Example 28, [2-Chloro-3-(5,5-dimethyl-4H-isoxazol-3-yl)-5-fluoro-phenyl]-[3-(3,5-difluorophenyl)-2,7-dimethyl-5,7-dihydro-4H-pyrazolo[3,4-c]pyridin-6-yl]methanone], `CC1c2nn(C)c(-c3cc(F)cc(F)c3)c2CCN1C(=O)c1cc(F)cc(C2=CC(Cl)C(=O)N=C2)c1Cl` (centres unmarked) [Example 97, 3-chloro-5-[2-chloro-3-[3-(3,5-difluorophenyl)-2,7-dimethyl-5,7-dihydro-4H-pyrazolo[3,4-c]pyridine-6-carbonyl]-5-fluoro-phenyl]-3H-pyridin-2-one] is 46-fold lower in IC50: 385 nM for the first, 8.44 nM for the second. The second is the more potent here.

Going from `CC1c2nn(C)c(-c3cncc(C(F)(F)F)n3)c2CCN1C(=O)c1cc(F)cc(N2CC(S(N)(=O)=O)C2)c1Cl` (centres unmarked) [Example 58, 1-[2-Chloro-3-[2,7-dimethyl-3-[6-(trifluoromethyl)pyrazin-2-yl]-5,7-dihydro-4H-pyrazolo[3,4-c]pyridine-6-carbonyl]-5-fluoro-phenyl]azetidine-3-sulfonamide] to `C[C@H]1c2nn(C)c(-c3cc(Cl)cc(C4(NS(C)(=O)=O)CC4)c3)c2CCN1C(=O)c1cc(F)cc(-c2cn[nH]c2)c1F` [Example 94, N-[1-[3-chloro-5-[(7S)-6-[2,5-difluoro-3-(1H-pyrazol-4-yl)benzoyl]-2,7-dimethyl-5,7-dihydro-4H-pyrazolo[3,4-c]pyridin-3-yl]phenyl]cyclopropyl]methanesulfonamide], the IC50 rises from 304 nM to 472 nM (1.6-fold).

First: COc1cccc(C(=O)N2CCc3c(nn(C)c3-c3cccc(O)n3)[C@@H]2C)c1Cl [Example 13, (2-Chloro-3-methoxy-phenyl)-[(7S)-3-(6-hydroxy-2-pyridyl)-2,7-dimethyl-5,7-dihydro-4H-pyrazolo[3,4-c]pyridin-6-yl]methanone]
Second: COc1cccc(C(=O)N2CCc3c(nn(C)c3-c3cc(Cl)cc(CNS(C)(=O)=O)c3)[C@@H]2C)c1Cl [Example 1, N-[[3-Chloro-5-[(7S)-6-(2-chloro-3-methoxy-benzoyl)-2,7-dimethyl-5,7-dihydro-4H-pyrazolo[3,4-c]pyridin-3-yl]phenyl]methyl]methanesulfonamide]
The IC50 of the first is 44-fold higher: 622 nM for the first, 14 nM for the second. The second is the more potent here.

With `C[C@H]1c2nn(C)c(-c3cc(Cl)cc(S(N)(=O)=O)c3)c2CCN1C(=O)c1ncn(-c2ccc[nH]c2=O)n1` [Example 62, 3-Chloro-5-[(7S)-2,7-dimethyl-6-[1-(2-oxo-1H-pyridin-3 yl)-1,2,4-triazole-3-carbonyl]-5,7-dihydro-4H-pyrazolo[3,4-c]pyridin-3-yl]benzenesulfonamide] the IC50 was 326 nM.
